Assay results published in patent EP0725776B1, “3-ARYL-4-ALKYL AND 4,5-DIALKYL-4H-1,2,4-TRIAZOLES USEFUL AS MEMORY ENHANCERS” (MERRELL PHARMACEUTICALS INC., priority 1993, dated 1995).

What was measured:
RAT CORTICAL MEMBRANES = test: [3H]hemicholinium-3 binding in vitro in cortical membranes after in vivo administration; parameters: species or system Male Sprague-Dawley rats; conditions: n=10
Text: The pharmacological properties of these compounds as enhancers of memory and cognition and their relative potencies may be measured through their effect on neuro-transmitters in the brain. Since drugs that block GABA inhibition in the cholinergic neurons of the basal forebrain nuclei will stimulate cholinergic firing, thus stimulating memory, the capacity of the drugs to enhance cognition can be assessed by measuring the increase in cholinergic firing rate. The increase in cholinergic firing rate is measured indirectly by measuring choline uptake or [^3H] hemicholinium-3 binding in brain cells taken from treated animals.
To test for [^3H] hemicholinium-3 binding in brain cells from the brain cortex, drugs were dissolved in saline by sonication. Male Sprague-Dawley rats were dosed i.p. and sacrificed by decapitation 60 min after injection. […] Binding was measured by incubating the tissue with varying concentrations of [^3H]hemicholinium-3 in an isotonic Tris buffer (pH 7.4) for 60 min at room temperature. […] After drying, the filters were placed in scintillation cocktail and radioactivity was determined using a Beckman scintillation counter. The values for the Kd and Bmax were determined by nonlinear curve-fitting and the average values for samples of 3 or more animals reported. […]

[1] = tested on: Diazepam-Induced Water Maze Learning Impairment; test: Reversal of diazepam-induced water maze learning impairment; type: in vivo, Male Sprague-Dawley rats; conditions: for Mean Latency ± S.E.M., Block 1 / Mean Latency ± S.E.M., Block 2 / Mean Latency ± S.E.M., Block 3: 8 rats
Text: The activity of compounds of formula I in enhancing spacial learning ability and cognition can be tested by studying their ability to reverse a water maze learning impairment induced by the benzodiazepine, diazepam (R. G. M. Morris, Learning and Motivation 12, 239-260 (1982); M. P. Arolfo, and J. D. Brioni, Behavioral and Neural Biology 55, 131-6 (1991); R. K. McNamara and R. W. Skelton, Pharmacology, Biochemistry & Behavior 38, 651-8 (1991); R. K. McNamara and R. W. Skelton, Psychopharmacology 107, 347-51 (1992)).
Male Sprague-Dawley rats are trained in a 120-cm diameter water-filled tank to locate a hidden platform submerged just below the surface of the water. The location of the platform remained constant, but for each trial the animal was required to swim from one of three different starting locations around the edge of the tank. There were no proximal cues in the tank, so the animal had to use a spatial mapping strategy using the distal cues around the room to navigate to the hidden platform. The animals were given 9 successive training trials during the single training day. […] After the animal found or was placed on the platform, it was allowed to stay there for 30 seconds. The next trial commenced immediately following the 30 second stay on the platform. Latency to locate the platform was recorded for each trial using a computerized video tracking system for automated acquisition of the data.
Separate treatment groups of four animals each were run in each experiment. The results of two experiments were combined so that 8 rats were tested in each treatment group. The vehicle-vehicle group received vehicle (distilled water plus Tween) i.p. 60 minutes prior to the first trial and vehicle i.p. 20 minutes prior to the first trial. The vehicle-diazepam group received vehicle i.p. 60 minutes prior to the first trial and 2.5 mg/kg diazepam i.p. 20 minutes prior to the first trial. Two groups of animals were treated with 3-(3-fluorophenyl)-4-methyl-4H-1,2,4-triazole, a compound of formula I, prior to treatment with diazepam. One group received 20 mg/kg of 3-(3-fluorophenyl)-4-methyl-4H-1,2,4-triazole i.p. 60 minutes prior to the first trial and 2.5 mg/kg diazepam i.p. 20 minutes prior to the first trial, while the second group received 40 mg/kg of 3-(3-fluorophenyl)-4-methyl-4H-1,2,4-triazole i.p. 60 minutes prior to the first trial and 2.5 mg/kg diazepam i.p. 20 minutes prior to the first trial.
The latency scores for each animal were averaged into three blocks of three trials each (one trial from each starting location). A one-way ANOVA comparing the treatment groups was computed on the scores for each trial block. If the overall ANOVA was statistically significant, comparisons between individual treatment groups were made with Fisher's PLSD test.

[2] = reported by M. Y. Mhasalkar, et al., J. Med. Chem 14(3) 260-262, (1971); cited from earlier work
[3] = 20 mg/kg i.p. 60 min prior to first trial, diazepam 2.5 mg/kg i.p. 20 min prior
[4] = 40 mg/kg i.p. 60 min prior to first trial, diazepam 2.5 mg/kg i.p. 20 min prior
[5] = vehicle i.p. 60 min prior, diazepam alone 2.5 mg/kg i.p. 20 min prior to first trial

SMILES: Cn1cnnc1-c1cccc(F)c1 [3-(3-Fluorophenyl)-4-methyl-4H-1,2,4-triazole]
- Bmax ± SEM (RAT CORTICAL MEMBRANES; [3H]hemicholinium-3 binding, rat cortex, dosed i.p. (1/mg/kg), sacrificed 60 min after injection): 20.4±2.48 fmol/mg Protein
- % Increase in Bmax (RAT CORTICAL MEMBRANES; over saline control, (1/mg/kg) i.p., 60 min): 45%
- Mean Latency ± S.E.M., Block 1 [1, 3]: 44.68 ± 2.56 s
- Mean Latency ± S.E.M., Block 2 [1, 3]: 37.67 ± 6.01 s
- Mean Latency ± S.E.M., Block 3 [1, 3]: 35.21 ± 6.00 s
- Effect on diazepam-induced impairment ([1]; 20 mg/kg i.p. plus diazepam 2.5 mg/kg, result in words): attenuated diazepam-induced impairment
- Mean Latency ± S.E.M., Block 1 [1, 4]: 58.19 ± 1.01 s
- Mean Latency ± S.E.M., Block 2 [1, 4]: 52.83 ± 3.85 s
- Mean Latency ± S.E.M., Block 3 [1, 4]: 53.59 ± 4.31 s
- Effect on diazepam-induced impairment ([1]; 40 mg/kg i.p. plus diazepam 2.5 mg/kg, result in words): did not affect the diazepam-induced impairment

SMILES: CN1C(=O)CN=C(c2ccccc2)c2cc(Cl)ccc21 [diazepam, reference compound]
- Effect on water maze learning ([1]; diazepam 2.5 mg/kg i.p. versus vehicle-vehicle group, p < .05 on all three blocks, result in words): significantly impaired water maze learning
- Mean Latency ± S.E.M., Block 1 [1, 5]: 57.70 ± 2.30 s
- Mean Latency ± S.E.M., Block 2 [1, 5]: 49.67 ± 6.06 s
- Mean Latency ± S.E.M., Block 3 [1, 5]: 55.76 ± 4.24 s

SMILES: Cn1cnnc1-c1ccc(Cl)cc1 [3-(4-Chlorophenyl)-4-methyl-4H-1,2,4-triazole]
- hypoglycemic activity [2]: hypoglycemic activity
